Laboratory results as given in publication PMC3365106, “Expression of Transient Receptor Potential Ankyrin 1 (TRPA1) and Its Role in Insulin Release from Rat Pancreatic Beta Cells” (PLoS ONE, 2012).

Molecular target: transient receptor potential ankyrin 1 (TRPA1) (Rattus norvegicus, UniProt Q6RI86)
Assay: whole-cell patch clamp in primary rat beta cells (MG in pipette); also currents in TRPA1-transfected HEK293T cells and siRNA-sensitive Ca2+ influx
Assay type: cell-based

Sequence of transient receptor potential ankyrin 1 (TRPA1) (Q6RI86 whole entry): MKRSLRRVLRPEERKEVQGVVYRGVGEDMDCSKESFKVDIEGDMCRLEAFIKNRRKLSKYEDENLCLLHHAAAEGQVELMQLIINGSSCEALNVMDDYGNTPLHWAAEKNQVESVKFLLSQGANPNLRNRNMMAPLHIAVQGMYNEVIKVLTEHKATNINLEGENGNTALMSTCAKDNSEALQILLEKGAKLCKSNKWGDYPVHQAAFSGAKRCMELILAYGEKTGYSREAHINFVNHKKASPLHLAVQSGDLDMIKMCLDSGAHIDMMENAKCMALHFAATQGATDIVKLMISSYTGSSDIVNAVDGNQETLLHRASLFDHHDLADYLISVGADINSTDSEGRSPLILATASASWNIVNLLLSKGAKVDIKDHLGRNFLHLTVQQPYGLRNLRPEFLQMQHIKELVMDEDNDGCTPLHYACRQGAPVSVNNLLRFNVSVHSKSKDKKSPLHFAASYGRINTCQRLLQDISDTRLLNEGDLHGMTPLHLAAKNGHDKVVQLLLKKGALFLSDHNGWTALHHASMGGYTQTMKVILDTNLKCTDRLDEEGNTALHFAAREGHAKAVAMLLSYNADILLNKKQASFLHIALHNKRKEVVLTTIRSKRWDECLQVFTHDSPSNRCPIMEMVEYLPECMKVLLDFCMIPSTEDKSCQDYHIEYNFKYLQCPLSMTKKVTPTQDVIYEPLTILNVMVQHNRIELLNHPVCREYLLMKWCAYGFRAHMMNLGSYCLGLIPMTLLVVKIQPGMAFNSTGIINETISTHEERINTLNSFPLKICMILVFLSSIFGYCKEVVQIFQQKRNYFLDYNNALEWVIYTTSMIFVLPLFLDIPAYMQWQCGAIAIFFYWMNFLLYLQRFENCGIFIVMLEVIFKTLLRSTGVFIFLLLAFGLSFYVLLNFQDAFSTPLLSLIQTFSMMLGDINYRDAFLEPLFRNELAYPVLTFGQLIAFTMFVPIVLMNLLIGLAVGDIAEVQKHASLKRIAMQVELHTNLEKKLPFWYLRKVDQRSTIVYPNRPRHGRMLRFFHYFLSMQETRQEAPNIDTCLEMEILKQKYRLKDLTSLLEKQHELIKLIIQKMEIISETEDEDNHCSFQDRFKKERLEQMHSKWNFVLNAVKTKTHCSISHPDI

EC50: 590 nM
Structure (SMILES): CC(=O)C=O [MG, methylglyoxal]
